Results taken from patent US20090176817A1, “Method of Treatment of Diarrhea-Predominant Irritable Bowel Syndrome in a Subject” (priority 2005, published 2009).

Test system: diarrhea-predominant IBS subjects
Experiment: Study S241.3.006: weekly diary questions on adequate relief
Format: in vivo, human
Protocol: The study was conducted in 129 study centers in the United States. At total of 2080 subjects consented to participate, and 711 subjects were randomized. A total of 692 subjects were analyzed for efficacy and 701 subjects were analyzed for safety. Diagnosis and main criteria for inclusion were IBS subjects satisfying the Rome I criteria (1992); the diarrhea predominant sub-population of the Rome II criteria; and a minimum abdominal pain/discomfort, stool frequency and consistency determined during the run-in period. Subjects were treated with cilansetron 2 mg tablets given orally TID or matching placebo tablets given orally TID for 12 weeks double-blind treatment.
The primary efficacy parameter was the number of months that a subject was a responder for IBS symptoms (abdominal pain, abdominal discomfort, abnormal bowel habits) over the 12-week treatment period. A responder for a month (monthly responder) was defined as a subject who answered the weekly question with “yes” at least twice for that month.
Studies S24 1.3.OO6, S24 1.3.0 1 1, and S24 1.3.009 used the following efficacy measurements: • The subjects answered the following three questions with “yes” or “no” using a phone diary at the end of each week: • a) During the last week, did you experience adequate relief of your IBS symptoms, such as abdominal pain, abdominal discomfort, abnormal bowel habits? • b) During the last week, did you experience adequate relief of your abdominal pain and/or discomfort? • c) During the last week, did you experience adequate relief of your abnormal bowel habits? • The subjects rated the following symptoms using the phone diary at the end of each day: • abdominal pain/discomfort (five-point scale); • stool consistency (seven-point Bristol Stool Scale); • stool frequency (number of bowel movements each day); • urgency (five-point scale); • straining (yes or no); • feeling of incomplete defecation (yes or no); • bloating or feeling of abdominal distension (five-point scale). • In Studies S241 A006 and S241.3.009, subjects completed the IBS-QOL Survey at Baseline (Day 1) and at the end of treatment. In Study S24 1.3.0 1 1, subjects completed the IBS-QOL Survey at Baseline (Day 1), at the end of the three-month treatment period, and at the end of rerandomized treatment.
In all three pivotal efficacy studies, the primary and main secondary efficacy parameters were based on the weekly diary questions on adequate relief and included the following: • 1. Number of months (one month equals four weeks) that a subject was a responder for the weekly diary questions on adequate relief. A responder for a month (monthly responder) was defined as a subject who answered the weekly question with “yes” at least twice for that month. For Studies S241.3.006 and S241.3.011, the primary efficacy parameter was the number of months that a subject was a responder for IBS symptoms during the 12-week treatment period. The two main secondary efficacy parameters were the number of months that a subject was a responder for abdominal pain/discomfort and abnormal bowel habits during the 12-week treatment period. For Study S241.3.009, the number of months that a subject was a responder for the weekly diary questions on adequate relief during Months 1 to 3 (the first 12 weeks) and Months 1 to 6 (24-week) was an additional key secondary efficacy parameter. • 2. Overall responder rate for the weekly diary questions on adequate relief. A responder was defined as a subject who answered the weekly question with “yes” for at least half of the answers available with a minimum of four weeks treatment duration. If a subject had less than four weeks treatment duration, the subject was considered a non-responder. The overall responder rate was the percentage of responders within a treatment group. For Study S241.3.009, the primary efficacy parameter was the overall responder rate for IBS symptoms during the 26-week treatment period. […]

[1] = 2 mg TID, monthly LOCF, ITT N = 344
[2] = 2 mg TID, three-month treatment period, monthly LOCF, ITT N = 344
[3] = 2 mg TID, three-month treatment period, observed case, ITT N = 344
[4] = Baseline BMI: <30 kg/m^2, three-month treatment period, monthly LOCF, ITT, 2 mg TID
[5] = Baseline BMI: ≧30 kg/m^2, three-month treatment period, monthly LOCF, ITT, 2 mg TID
[6] = Baseline severity of IBS: non-severe, three-month treatment period, monthly LOCF, ITT, 2 mg TID
[7] = Baseline severity of IBS: non-severe, three-month treatment period, observed case, ITT, 2 mg TID
[8] = Baseline severity of IBS: severe, three-month treatment period, monthly LOCF, ITT, 2 mg TID
[9] = Baseline severity of IBS: severe, three-month treatment period, observed case, ITT, 2 mg TID

Cc1nccn1C[C@H]1CCc2c(c3cccc4c3n2CCC4)C1=O [Cilansetron, (R)-(−)-4,5,6,8,9,10-hexahydro-10-[(2-methyl-1H-imidazol-1-yl)methyl]-11H-pyrido-[3,2,1-jk]-carbazol-11-one]
Responders for one month, IBS symptoms (2 mg TID, 3 months): 13% | Responders for one month, abdominal pain/discomfort (2 mg TID, 3 months): 12% | Responders for one month, abnormal bowel habits (2 mg TID, 3 months): 12% | Responders for three months, IBS symptoms (2 mg TID, 3 months): 35% | Responders for three months, abdominal pain/discomfort (2 mg TID, 3 months): 40% | Responders for three months, abnormal bowel habits (2 mg TID, 3 months): 38% | Responders for two months, IBS symptoms (2 mg TID, 3 months): 15% | Responders for two months, abdominal pain/discomfort (2 mg TID, 3 months): 14% | Responders for two months, abnormal bowel habits (2 mg TID, 3 months): 15% | Responders for zero months, IBS symptoms (2 mg TID, 3 months): 37% | Responders for zero months, abdominal pain/discomfort (2 mg TID, 3 months): 34% | Responders for zero months, abnormal bowel habits (2 mg TID, 3 months): 36% | Responder rate, adequate relief of IBS symptoms, Each month of Months 1 to 3 [1]: 119 (35) n (%) | Responder rate, adequate relief of IBS symptoms, Month 1 [1]: 176 (51) n (%) | Responder rate, adequate relief of IBS symptoms, Month 2 [1]: 163 (47) n (%) | Responder rate, adequate relief of IBS symptoms, Month 3 [1]: 169 (49) n (%) | Responder rate, adequate relief of abdominal pain/discomfort, Each month of Months 1 to 3 [1]: 139 (40) n (%) | Responder rate, adequate relief of abdominal pain/discomfort, Month 1 [1]: 192 (56) n (%) | Responder rate, adequate relief of abdominal pain/discomfort, Month 2 [1]: 178 (52) n (%) | Responder rate, adequate relief of abdominal pain/discomfort, Month 3 [1]: 183 (53) n (%) | Responder rate, adequate relief of abnormal bowel habits, Each month of Months 1 to 3 [1]: 129 (38) n (%) | Responder rate, adequate relief of abnormal bowel habits, Month 1 [1]: 180 (52) n (%) | Responder rate, adequate relief of abnormal bowel habits, Month 2 [1]: 178 (52) n (%) | Responder rate, adequate relief of abnormal bowel habits, Month 3 [1]: 173 (50) n (%) | Subjects who were responders for One month, adequate relief of IBS symptoms [2]: 45 (13) n (%) | Subjects who were responders for One month, adequate relief of abdominal pain/discomfort [2]: 42 (12) n (%) | Subjects who were responders for One month, adequate relief of abnormal bowel habits [2]: 40 (12) n (%) | Subjects who were responders for Three months, adequate relief of IBS symptoms [2]: 119 (35) n (%) | Subjects who were responders for Three months, adequate relief of abdominal pain/discomfort [2]: 139 (40) n (%) | Subjects who were responders for Three months, adequate relief of abnormal bowel habits [2]: 129 (38) n (%) | Subjects who were responders for Two months, adequate relief of IBS symptoms [2]: 53 (15) n (%) | Subjects who were responders for Two months, adequate relief of abdominal pain/discomfort [2]: 47 (14) n (%) | Subjects who were responders for Two months, adequate relief of abnormal bowel habits [2]: 52 (15) n (%) | Subjects who were responders for Zero months, adequate relief of IBS symptoms [2]: 127 (37) n (%) | Subjects who were responders for Zero months, adequate relief of abdominal pain/discomfort [2]: 116 (34) n (%) | Subjects who were responders for Zero months, adequate relief of abnormal bowel habits [2]: 123 (36) n (%) | Overall responder rate, adequate relief of IBS symptoms [3]: 168 (49) n (%) | Overall responder rate, adequate relief of abdominal pain/discomfort [3]: 179 (52) n (%) | Overall responder rate, adequate relief of abnormal bowel habits [3]: 174 (51) n (%) | Median adequate relief rate, IBS symptoms (3 months): 0.50 | Median adequate relief rate, abdominal pain/discomfort (3 months): 0.58 | Median adequate relief rate, abnormal bowel habits (3 months): 0.50 | Overall responder rate, IBS symptoms (3 months, observed case, ITT): 49% | Overall responder rate, abdominal pain/discomfort (3 months, observed case, ITT): 52% | Overall responder rate, abnormal bowel habits (3 months, observed case, ITT): 51% | Number of months a subject was a responder: One month (Abdominal pain/discomfort) [4]: 26 (11) n (%) | Number of months a subject was a responder: One month (Abnormal bowel habits) [4]: 27 (12) n (%) | Number of months a subject was a responder: One month (IBS symptoms) [4]: 29 (13) n (%) | Number of months a subject was a responder: Three months (Abdominal pain/discomfort) [4]: 96 (42) n (%) | Number of months a subject was a responder: Three months (Abnormal bowel habits) [4]: 83 (36) n (%) | Number of months a subject was a responder: Three months (IBS symptoms) [4]: 80 (35) n (%) | Number of months a subject was a responder: Two months (Abdominal pain/discomfort) [4]: 29 (13) n (%) | Number of months a subject was a responder: Two months (Abnormal bowel habits) [4]: 37 (16) n (%) | Number of months a subject was a responder: Two months (IBS symptoms) [4]: 35 (15) n (%) | Number of months a subject was a responder: Zero months (Abdominal pain/discomfort) [4]: 79 (34) n (%) | Number of months a subject was a responder: Zero months (Abnormal bowel habits) [4]: 83 (36) n (%) | Number of months a subject was a responder: Zero months (IBS symptoms) [4]: 86 (37) n (%) | Number of months a subject was a responder: One month (Abdominal pain/discomfort) [5]: 16 (14) n (%) | Number of months a subject was a responder: One month (Abnormal bowel habits) [5]: 13 (11) n (%) | Number of months a subject was a responder: One month (IBS symptoms) [5]: 16 (14) n (%) | Number of months a subject was a responder: Three months (Abdominal pain/discomfort) [5]: 43 (38) n (%) | Number of months a subject was a responder: Three months (Abnormal bowel habits) [5]: 46 (40) n (%) | Number of months a subject was a responder: Three months (IBS symptoms) [5]: 39 (34) n (%) | Number of months a subject was a responder: Two months (Abdominal pain/discomfort) [5]: 18 (16) n (%) | Number of months a subject was a responder: Two months (Abnormal bowel habits) [5]: 15 (13) n (%) | Number of months a subject was a responder: Two months (IBS symptoms) [5]: 18 (16) n (%) | Number of months a subject was a responder: Zero months (Abdominal pain/discomfort) [5]: 37 (32) n (%) | Number of months a subject was a responder: Zero months (Abnormal bowel habits) [5]: 40 (35) n (%) | Number of months a subject was a responder: Zero months (IBS symptoms) [5]: 41 (36) n (%) | Number of months a subject was a responder: One month (Abdominal pain/discomfort) [6]: 9 (6) n (%) | Number of months a subject was a responder: One month (Abnormal bowel habits) [6]: 16 (11) n (%) | Number of months a subject was a responder: One month (IBS symptoms) [6]: 18 (12) n (%) | Number of months a subject was a responder: Three months (Abdominal pain/discomfort) [6]: 72 (49) n (%) | Number of months a subject was a responder: Three months (Abnormal bowel habits) [6]: 68 (46) n (%) | Number of months a subject was a responder: Three months (IBS symptoms) [6]: 60 (41) n (%) | Number of months a subject was a responder: Two months (Abdominal pain/discomfort) [6]: 25 (17) n (%) | Number of months a subject was a responder: Two months (Abnormal bowel habits) [6]: 22 (15) n (%) | Number of months a subject was a responder: Two months (IBS symptoms) [6]: 24 (16) n (%) | Number of months a subject was a responder: Zero months (Abdominal pain/discomfort) [6]: 42 (28) n (%) | Number of months a subject was a responder: Zero months (Abnormal bowel habits) [6]: 42 (28) n (%) | Number of months a subject was a responder: Zero months (IBS symptoms) [6]: 46 (31) n (%) | Overall responder rate, adequate relief of IBS symptoms [7]: 81 (55) n (%) | Overall responder rate, adequate relief of abdominal pain/discomfort [7]: 89 (60) n (%) | Overall responder rate, adequate relief of abnormal bowel habits [7]: 84 (57) n (%) | Number of months a subject was a responder: One month (Abdominal pain/discomfort) [8]: 33 (17) n (%) | Number of months a subject was a responder: One month (Abnormal bowel habits) [8]: 24 (12) n (%) | Number of months a subject was a responder: One month (IBS symptoms) [8]: 27 (14) n (%) | Number of months a subject was a responder: Three months (Abdominal pain/discomfort) [8]: 67 (34) n (%) | Number of months a subject was a responder: Three months (Abnormal bowel habits) [8]: 61 (31) n (%) | Number of months a subject was a responder: Three months (IBS symptoms) [8]: 59 (30) n (%) | Number of months a subject was a responder: Two months (Abdominal pain/discomfort) [8]: 22 (11) n (%) | Number of months a subject was a responder: Two months (Abnormal bowel habits) [8]: 30 (15) n (%) | Number of months a subject was a responder: Two months (IBS symptoms) [8]: 29 (15) n (%) | Number of months a subject was a responder: Zero months (Abdominal pain/discomfort) [8]: 74 (38) n (%) | Number of months a subject was a responder: Zero months (Abnormal bowel habits) [8]: 81 (41) n (%) | Number of months a subject was a responder: Zero months (IBS symptoms) [8]: 81 (41) n (%) | Overall responder rate, adequate relief of IBS symptoms [9]: 87 (44) n (%) | Overall responder rate, adequate relief of abdominal pain/discomfort [9]: 90 (46) n (%)
